Data taken from patent US10577349B2 (Sanford Burnham Prebys Medical Discovery Institute, priority 2015, dated 2020).

Experiments:
A375 = test: 48 h Cytotoxicity A375; format: cell-based; conditions: Homo sapiens, A-375
[1] = target: EmCV Cap-dependent translation; test: In vitro translation assay, FF-EmCV-Ren construct, cap-dependent (FF luciferase); format: biochemical, rabbit reticulocyte lysates
From the text: (§1) The bicistronic dual-reporter constructs that contain the firefly luciferase (FF) sequence, followed by the (encephalomyocarditis virus) EmCV and Hepatitis C virus (HCV) IRES, respectively, and the Renilla reniformis (Ren) luciferase sequence, has been previously described (Bordeleau Me., et al. Functional characterization of IRESes by an inhibitor of the RNA helicase eIF4A. Nature chemical biology. 2006; 2:213-20). For measurement of translation from the FF-EmCV-Ren and FF-HCV-Ren constructs, rabbit reticulocyte lysates (RRL) (Life Technologies, Carlsbad, Calif., USA) and the Dual-Glo (Promega, Madison, Wis., USA) read-outs were chosen. Two μl rabbit reticulocyte lysates mixed with Translation Mix 20× (-Met) and Translation Mix 20× (-Leu) in a ratio of 1:1 were pre-incubated with test compounds in 1536-well plates for 1 h at room temperature. Then, translation was started by adding 0.1 μg RNA per well and incubated for 2 h at 30° C. After a short chill phase, 2.5 μl Dual-Glo reagent 1 was added to each well and incubated for 10 min before reading the FF luciferase activity with the ViewLux uHTS Microplate Imager (Perkin Elmer, Waltham, Mass., USA). Directly after, 2.5 μl Dual-Glo reagent 2 was dispensed to each well and incubated at room temperature for 10 min before reading the Ren luciferase activity on the ViewLux. To exclude the possibility that test compounds interfere with any of the luciferase activities, a counter assay was performed in which the compounds were added after the completion of the in vitro translation.

[2] = target: EmCV Cap-independent translation; test: In vitro translation assay, FF-EmCV-Ren construct, cap-independent (Ren luciferase); format: biochemical, rabbit reticulocyte lysates
From the text: as §1

[3] = target: HCV cap-dependent translation; test: In vitro translation assay, FF-HCV-Ren construct, cap-dependent (FF luciferase); format: biochemical, rabbit reticulocyte lysates
From the text: as §1

[4] = target: HCV cap-independent translation; test: In vitro translation assay, FF-HCV-Ren construct, cap-independent (Ren luciferase); format: biochemical, rabbit reticulocyte lysates
From the text: as §1

SMILES | IC50 (A375) [µM] | IC50 [1] [µM] | IC50 [2] [µM] | IC50 [3] [µM] | IC50 [4] [µM]
O=C(/C=C/c1ccncc1)c1c(-c2ccccc2)c2ccncc2[nH]c1=O [Compound 23, 4-Phenyl-3-(3-pyridin-4-yl-acryloyl)-1H-[1,7]naphthyridin-2-one] | < 2 | > 20 | 10 to 20 | > 20 | > 20
O=C(/C=C/c1nc2ccccc2[nH]1)c1c(-c2ccccc2)c2cnccc2[nH]c1=O [Compound 24, 3-(3-1H-Benzoimidazol-2-yl-acryloyl)-4-phenyl-1H-[1,6]naphthyridin-2-one] | < 2 | 2 to 10 | 2 to 10 | 10 to 20 | 10 to 20
O=C(/C=C/c1nc2ccccc2[nH]1)c1c(-c2ccccc2)c2cccnc2[nH]c1=O [Compound 25, 3-(3-1H-Benzoimidazol-2-yl-acryloyl)-4-phenyl-1H-[1,8]naphthyridin-2-one] | 10 to 20 | 10 to 20 | 10 to 20 | 10 to 20 | > 20
O=C(/C=C/c1ccsc1)c1c(-c2ccccc2)c2cc(Cl)ccc2[nH]c1=O [Compound 27, 6-Chloro-4-phenyl-3-(3-thiophen-3-yl-acryloyl)-1H-quinolin-2-one] | 2 to 10 | 2 to 10 | 2 to 10 | 2 to 10 | 2 to 10
O=C(/C=C/c1ccncc1)c1c(-c2ccccc2)c2cc(Cl)ccc2[nH]c1=O [Compound 28, 6-Chloro-4-phenyl-3-(3-pyridin-4-yl-acryloyl)-1H-quinolin-2-one] | < 2 | 2 to 10 | 2 to 10 | 2 to 10 | 2 to 10
Cn1c(/C=C/C(=O)c2c(-c3ccccc3)c3cc(Cl)ccc3[nH]c2=O)cc2ccccc21 [Compound 29, 6-Chloro-3-[3-(1-methyl-1H-indol-2-yl)-acryloyl]-4-phenyl-1H-quinolin-2-one] | < 2 | > 20 | > 20 | 10 to 20 | > 20
Cn1ccc2cc(/C=C/C(=O)c3c(-c4ccccc4)c4cc(Cl)ccc4[nH]c3=O)ccc21 [Compound 30, 6-Chloro-3-[3-(1-methyl-1H-indol-5-yl)-acryloyl]-4-phenyl-1H-quinolin-2-one] | 2 to 10 | > 20 | > 20 | > 20 | > 20
O=C(/C=C/c1ccccc1)c1c(-c2ccccc2)c2cc(Cl)ccc2[nH]c1=O [Compound 31, 6-Chloro-4-phenyl-3-(3-phenyl-acryloyl)-1H-quinolin-2-one] | 2 to 10 | 2 to 10 | 2 to 10 | 2 to 10 | 2 to 10
O=C(/C=C/c1cccnc1)c1c(-c2ccccc2)c2cc(Cl)ccc2[nH]c1=O [Compound 32, 6-Chloro-4-phenyl-3-(3-pyridin-3-yl-acryloyl)-1H-quinolin-2-one] | < 2 | 2 to 10 | 2 to 10 | 2 to 10 | 2 to 10
O=C(/C=C/c1ccc(Cl)cc1)c1c(-c2ccccc2)c2cc(Cl)ccc2[nH]c1=O [Compound 33, 6-Chloro-3-[3-(4-chloro-phenyl)-acryloyl]-4-phenyl-1H-quinolin-2-one] | 2 to 10 | 2 to 10 | 2 to 10 | 2 to 10 | 2 to 10
Cc1ccc(/C=C/C(=O)c2c(-c3ccccc3)c3cc(Cl)ccc3[nH]c2=O)cc1 [Compound 34, 6-Chloro-4-phenyl-3-(3-p-tolyl-acryloyl)-1H-quinolin-2-one] | 2 to 10 | 10 to 20 | 2 to 10 | 2 to 10 | 2 to 10
CN(C)c1ccc(/C=C/C(=O)c2c(-c3ccccc3)c3cc(Cl)ccc3[nH]c2=O)cc1 [Compound 35, 6-Chloro-3-[3-(4-dimethylamino-phenyl)-acryloyl]-4-phenyl-1H-quinolin-2-one] | > 20 | > 20 | > 20 | > 20 | > 20
O=C(/C=C/c1cc2ccccc2s1)c1c(-c2ccccc2)c2cc(Cl)ccc2[nH]c1=O [Compound 36, 3-(3-Benzo[b]thiophen-2-yl-acryloyl)-6-chloro-4-phenyl-1H-quinolin-2-one] | 2 to 10 | 2 to 10 | 10 to 20 | 2 to 10 | 2 to 10
O=C(/C=C/c1cncnc1)c1c(-c2ccccc2)c2cc(Cl)ccc2[nH]c1=O [Compound 37, 6-Chloro-4-phenyl-3-(3-pyrimidin-5-yl-acryloyl)-1H-quinolin-2-one] | 2 to 10 | 2 to 10 | 2 to 10 | 2 to 10 | 2 to 10
O=C(/C=C/c1ccc(C(F)(F)F)cc1)c1c(-c2ccccc2)c2cc(Cl)ccc2[nH]c1=O [Compound 39, 6-Chloro-4-phenyl-3-[3-(4-trifluoromethyl-phenyl)-acryloyl]-1H-quinolin-2-one] | 2 to 10 | 2 to 10 | 2 to 10 | 10 to 20 | 10 to 20
O=C(/C=C/c1ccc(F)c(F)c1)c1c(-c2ccccc2)c2cc(Cl)ccc2[nH]c1=O [Compound 40, 6-Chloro-3-[3-(3,4-difluoro-phenyl)-acryloyl]-4-phenyl-1H-quinolin-2-one] | < 2 | 2 to 10 | 2 to 10 | 2 to 10 | 2 to 10
O=C(/C=C/c1ccc(F)cc1F)c1c(-c2ccccc2)c2cc(Cl)ccc2[nH]c1=O [Compound 41, 6-Chloro-3-[3-(2,4-difluoro-phenyl)-acryloyl]-4-phenyl-1H-quinolin-2-one] | < 2 | 2 to 10 | 2 to 10 | 2 to 10 | 2 to 10
O=C(/C=C/c1c(F)cccc1F)c1c(-c2ccccc2)c2cc(Cl)ccc2[nH]c1=O [Compound 42, 6-Chloro-3-[3-(2,6-difluoro-phenyl)-acryloyl]-4-phenyl-1H-quinolin-2-one] | < 2 | 2 to 10 | 2 to 10 | 2 to 10 | 2 to 10
COc1ccc(/C=C/C(=O)c2c(-c3ccccc3)c3cc(Cl)ccc3[nH]c2=O)c(F)c1 [Compound 43, 6-Chloro-3-[3-(2-fluoro-4-methoxy-phenyl)-acryloyl]-4-phenyl-1H-quinolin-2-one] | < 2 | > 20 | > 20 | 2 to 10 | 2 to 10
Cn1ccnc1/C=C/C(=O)c1c(-c2ccccc2)c2cc(Cl)ccc2[nH]c1=O [Compound 45, 6-Chloro-3-[3-(1-methyl-1H-imidazol-2-yl)-acryloyl]-4-phenyl-1H-quinolin-2-one] | 2 to 10 | 2 to 10 | 2 to 10 | 10 to 20 | 2 to 10
O=C(/C=C/c1cc(Br)cs1)c1c(-c2ccccc2)c2cc(Cl)ccc2[nH]c1=O [Compound 46, 3-[3-(4-Bromo-thiophen-2-yl)-acryloyl]-6-chloro-4-phenyl-1H-quinolin-2-one] | 2 to 10 | 2 to 10 | 2 to 10 | 2 to 10 | 2 to 10
O=C(/C=C/c1ccc(Br)cn1)c1c(-c2ccccc2)c2cc(Cl)ccc2[nH]c1=O [Compound 47, 3-[3-(5-Bromo-pyridin-2-yl)-acryloyl]-6-chloro-4-phenyl-1H-quinolin-2-one] | < 2 | 2 to 10 | 2 to 10 | 2 to 10 | 2 to 10
Cc1ccc(/C=C/C(=O)c2c(-c3ccccc3)c3cc(Cl)ccc3[nH]c2=O)nc1 [Compound 48, 6-Chloro-3-[3-(5-methyl-pyridin-2-yl)-acryloyl]-4-phenyl-1H-quinolin-2-one] | 2 to 10 | 2 to 10 | 2 to 10 | 2 to 10 | 10 to 20
O=C(/C=C/c1ccc(F)cc1C(F)(F)F)c1c(-c2ccccc2)c2cc(Cl)ccc2[nH]c1=O [Compound 49, 6-Chloro-3-[3-(4-fluoro-2-trifluoromethyl-phenyl)-acryloyl]-4-phenyl-1H-quinolin-2-one] | < 2 | 2 to 10 | 2 to 10 | 2 to 10 | 2 to 10
O=C(/C=C/c1ccoc1)c1c(-c2ccccc2)c2cc(Cl)ccc2[nH]c1=O [Compound 50, 6-Chloro-3-(3-furan-3-yl-acryloyl)-4-phenyl-1H-quinolin-2-one] | < 2 | 2 to 10 | 10 to 20 | > 20 | > 20
O=C(/C=C/c1cccs1)c1c(-c2ccccc2)c2cc(Cl)ccc2[nH]c1=O [Compound 51, 6-Chloro-4-phenyl-3-(3-thiophen-2-yl-acryloyl)-1H-quinolin-2-one] | 2 to 10 | > 20 | > 20 | 10 to 20 | > 20
